Experimental data reported in PMC7816853, “Overexpression of the chloroplastic 2-oxoglutarate/malate transporter disturbs carbon and nitrogen homeostasis in rice” (Journal of Experimental Botany, 2020).

Target: T1, ZmOMT1 (Zea mays, UniProt Q768R5)
T1 construct: gene ZmpOMT1; full-length CDS with C-terminal AcV5 tag kept; expressed in transgenic rice (Oryza sativa indica IR64) leaf mesophyll; total leaf membrane protein reconstituted into liposomes; calculated ~60 kDa, 40 kDa on blot
T1 sequence (Q768R5 81-578): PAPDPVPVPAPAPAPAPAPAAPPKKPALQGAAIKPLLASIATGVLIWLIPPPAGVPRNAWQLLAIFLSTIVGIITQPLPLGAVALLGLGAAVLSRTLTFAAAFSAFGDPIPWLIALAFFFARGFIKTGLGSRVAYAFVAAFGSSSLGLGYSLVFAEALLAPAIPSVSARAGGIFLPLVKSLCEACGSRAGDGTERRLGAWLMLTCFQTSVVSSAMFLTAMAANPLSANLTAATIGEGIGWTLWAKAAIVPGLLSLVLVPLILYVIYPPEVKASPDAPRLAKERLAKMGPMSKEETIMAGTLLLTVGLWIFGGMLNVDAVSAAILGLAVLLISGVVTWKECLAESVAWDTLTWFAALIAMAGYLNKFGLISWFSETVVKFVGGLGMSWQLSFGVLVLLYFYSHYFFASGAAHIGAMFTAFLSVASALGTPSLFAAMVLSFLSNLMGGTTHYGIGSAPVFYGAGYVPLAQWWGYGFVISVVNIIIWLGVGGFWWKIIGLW
Experiment: […]malate uptake into proteoliposomes, malate/malate counterexchange
Type: biochemical
Settings: pH 7.5; 30 mM malate preloaded inside; 0.3 mM external [14C]malate; total leaf membrane protein of transgenic rice versus wild type (native rice transporters present); labelled compound

O=C(O)C[C@H](O)C(=O)O [malate]
[14C]malate uptake into proteoliposomes, malate/malate counterexchange: significantly higher malate–malate counterexchange activity in liposomes reconstituted with membrane proteins from overexpression lines
